Laboratory results: patent publication US9321760B2 (Merck Patent GmbH, priority 2011, dated 2016)

Biological target: P70S6K (T412E mutant) (Homo sapiens (Human), UniProt P23443, T412E)
Test: P70S6K enzyme assay
Type: biochemical
Details: 3 nM P70S6K T412E mutant, 24 μM ATP, 1 μM FITC-AHA-AKRRRLSSLRA-OH substrate peptide, 90 min at 25° C.
Procedure: The IC50 values reported for the compounds in the Experimental section were derived from the following protocol for the p70S6K enzyme assay.
P70S6K inhibitor compounds were diluted and plated in 96 well plates. A reaction mixture including the following components was then added to the compound plate to initiate the enzyme reaction; P70S6K (3 nM, T412E mutant, Millipore) was mixed with 24 μM ATP in an assay buffer containing 100 mM Hepes (pH 7.5), 5 mM MgCl2, 1 mM DTT, 0.015% Brij and 1 μM of the substrate peptide FITC-AHA-AKRRRLSSLRA-OH (derived from the S6 ribosomal protein sequence, FITC=fluorescein isothiocyanate, AHA=6-aminohexanoic acid). The reaction was incubated for 90 min at 25° C., before the addition of 10 mM EDTA to stop the reaction. The proportion of substrate and product (phosphorylated) peptide was analysed on a Caliper Life Sciences Lab Chip 3000, using a pressure of −1.4 psi, and upstream and downstream voltages of −3000 and −700 respectively. Product peaks were resolved before substrate peaks on the resulting chromatograms.

P70S6K (T412E mutant), sequence (P23443 whole entry T412E): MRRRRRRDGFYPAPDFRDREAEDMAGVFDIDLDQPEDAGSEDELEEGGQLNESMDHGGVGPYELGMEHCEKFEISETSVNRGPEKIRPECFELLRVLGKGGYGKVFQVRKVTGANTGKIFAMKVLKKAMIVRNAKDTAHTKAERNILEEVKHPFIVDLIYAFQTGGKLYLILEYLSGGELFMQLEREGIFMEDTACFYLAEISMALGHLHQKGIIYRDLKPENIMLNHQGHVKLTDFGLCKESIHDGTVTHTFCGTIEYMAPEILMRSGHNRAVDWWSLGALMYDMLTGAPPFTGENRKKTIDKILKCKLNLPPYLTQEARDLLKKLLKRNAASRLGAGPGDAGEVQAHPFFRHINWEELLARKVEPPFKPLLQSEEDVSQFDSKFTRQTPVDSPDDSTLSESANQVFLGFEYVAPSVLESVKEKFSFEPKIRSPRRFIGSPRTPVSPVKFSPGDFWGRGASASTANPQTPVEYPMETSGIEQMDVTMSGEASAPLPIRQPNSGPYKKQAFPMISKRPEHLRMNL

Compound	IC50 [nM]
Nc1ncnc(N2CCN(C(CN3CCC3)c3ccc(Cl)c(Cl)c3)CC2)c1-c1ccc(N2CCNCC2)nc1 (stereo not drawn) [Example 133, 6-{4-[2-Azetidin-1-yl-1-(3,4-dichloro-phenyl)-ethyl]-piperazin-1-yl}-5-(6-piperazin-1-yl-pyridin-3-yl)-pyrimidin-4-ylamine]	> 100000
Nc1ncnc(N2CCN(C(CN3CCC3)c3cccc(Cl)c3Cl)CC2)c1-c1cn[nH]c1 (stereo not drawn) [Example 126, 6-{4-[2-Azetidin-1-yl-1-(2,3-dichloro-phenyl)-ethyl]-piperazin-1-yl}-5-(1H-pyrazol-4-yl)-pyrimidin-4-ylamine]	390
Nc1ncnc(N2CCC(Cc3ccc(-c4ccc(F)cc4)cc3)CC2)c1-c1ccc(F)cc1 [Example 50, 5-(4-Fluorophenyl)-6{4-(4-(4-fluorophenyl)benzyl)-piperidin-1-yl}pyrimidin-4-amine]	450
Nc1ncnc(N2CCN(C(CN3CCC3)c3ccc(F)cc3Cl)CC2)c1-c1cn[nH]c1 (stereo not drawn) [Example 137, 6-{4-[2-Azetidin-1-yl-1-(2-chloro-4-fluoro-phenyl)-ethyl]-piperazin-1-yl}-5-(1H-pyrazol-4-yl)-pyrimidin-4-ylamine]	3100
Nc1ncnc(N2CCN(C(CN3CCC3)c3ccc4[nH]c(=O)sc4c3)CC2)c1-c1ccc(F)cc1 (stereo not drawn) [Example 118, 6-(1-{4-[6-Amino-5-(4-fluoro-phenyl)-pyrimidin-4-yl]-piperazin-1-yl}-2-azetidin-1-yl-ethyl)-3H-benzothiazol-2-one]	140
N#Cc1cccc([C@H](CN2CCC2)N2CCN(c3ncnc(N)c3-c3ccc(F)cc3)CC2)c1 [Example 129, 3-((R)-1-{4-[6-Amino-5-(4-fluoro-phenyl)-pyrimidin-4-yl]-piperazin-1-yl}-2-azetidin-1-yl-ethyl)-benzonitrile]	610
Cn1ccnc1C(c1ccccc1)N1CCN(c2ncnc(N)c2-c2ccc(F)cc2)CC1 (stereo not drawn) [Example 30, 5-(4-Fluoro-phenyl)-6-{4-[(1-methyl-1H-imidazol-2-yl)-phenyl-methyl]-piperazin-1-yl}-pyrimidin-4-ylamine]	34.5
Nc1ncnc(N2CCC(C(NC3CCCC3)c3ccc(F)cc3)CC2)c1-c1ccc(F)cc1 (stereo not drawn) [Example 145, 6-(4-((cyclopentylamino)(4-fluorophenyl)methyl)piperidin-1-yl)-5-(4-fluorophenyl)pyrimidin-4-amine]	120
Nc1cc(N2CCN(C(CN3CCCC3)c3ccc(F)cc3)CC2)ncn1 (stereo not drawn) [Example 78, 6-{4-[1-(4-fluorophenyl)-2-pyrrolidin-1-yl-ethyl]-piperazin-1-yl}-pyrimidin-4-ylamine]	> 1000
C=Cc1c(N)ncnc1N1CCN(C(CN)c2ccc(C(F)(F)F)cc2)CC1 (stereo not drawn) [Example 19, 6-(4-(2-amino-1-(4-(trifluoromethyl)-phenyl)ethyl)piperazin-1-yl)-5-vinylpyrimidin-4-amine]	19
NCC(c1ccc(C(F)(F)F)cc1)C1CCN(c2ncnc(N)c2-c2ccc(F)cc2)CC1 (stereo not drawn) [Example 52, 6-{4-[2-Amino-1-(4-trifluoromethyl-phenyl)-ethyl]-piperidin-1-yl}-5-(4-fluoro-phenyl)-pyrimidin-4-ylamine]	3.3
Nc1ncnc(N2CCN(C(CN3CCCCC3)c3ccc(C(F)(F)F)cc3)CC2)c1-c1ccc(F)cc1 (stereo not drawn) [Example 12, 5-(4-Fluoro-phenyl)-6-{4-[2-piperidin-1-yl-1-(4-trifluoromethyl-phenyl)-ethyl]-piperazin-1-yl}-pyrimidin-4-ylamine]	18
Nc1ncnc(N2CCC(C(O)c3ccc(-c4ccc(F)cc4)cc3)CC2)c1-c1ccc(F)cc1 (stereo not drawn) [Example 139]	17
COC(=O)c1ccc([C@@H](CN2CCC2)N2CCN(c3ncnc(N)c3-c3ccc(F)cc3)CC2)cc1 [Example 110, 4-((S)-1-{4-[6-Amino-5-(4-fluoro-phenyl)-pyrimidin-4-yl]-piperazin-1-yl}-2-azetidin-1-yl-ethyl)-benzoic acid methyl ester]	450
Nc1ncnc(N2CCC(Cc3ccc(Cl)cc3)CC2)c1-c1ccc(F)cc1 [Example 49, 5-(4-Fluorophenyl)-6{4-(4-chlorobenzyl)-piperidin-1-yl}pyrimidin-4-amine]	16
Nc1ncnc(N2CCN(C(CN3CCCC3)c3cccc(C(F)(F)F)c3)CC2)c1Br (stereo not drawn) [Example 69, 5-Bromo-6{4-[1-(3-trifluoromethyl-phenyl)-2-pyrrolidin-1-yl-ethyl]-piperazin-1-yl}-pyrimidin-4-ylamine]	> 1000
COC(=O)Cn1cc(-c2c(N)ncnc2N2CCN(C(CN3CCC3)c3cccc(C#N)c3)CC2)cn1 (stereo not drawn) [Example 130, [4-(4-Amino-6-{4-[2-azetidin-1-yl-1-(3-cyano-phenyl)-ethyl]-piperazin-1-yl}-pyrimidin-5-yl)-pyrazol-1-yl]-acetic acid methyl ester]	> 100000
Nc1ncnc(N2CCN(C(CN3CCCC3)c3ccc(F)cc3)CC2)c1-c1ccc(F)cc1 (stereo in doubt) [Example 83, (S)-5-(4-Fluorophenyl)-6{4-[1-(4-fluorophenyl)-2-pyrrolidin-1-yl-ethyl]-piperazin-1-yl}-pyrimidin-4-ylamine]	1000
N#Cc1cccc([C@@H](CN2CCC2)N2CCN(c3ncnc(N)c3-c3cn[nH]c3)CC2)c1 [Example 97, 3-((S)-1-{4-[6-Amino-5-(1H-pyrazol-4-yl)-pyrimidin-4-yl]-piperazin-1-yl}-2-azetidin-1-yl-ethyl)-benzonitrile]	3700
Nc1ncnc(N2CCN(C(CN3CCCCC3)c3cccc(C(F)(F)F)c3)CC2)c1Br (stereo not drawn) [Example 70, 5-Bromo-6{4-[1-(3-trifluoromethyl-phenyl)-2-piperidin-1-yl-ethyl]-piperazin-1-yl}-pyrimidin-4-ylamine]	> 1000

The next lines start with the values.

IC50 [nM]	Compound
450	COc1ccc([C@H](CCO)NC(=O)C2(N)CCN(c3ncnc(N)c3C#N)CC2)cc1 [Example 229, 4-Amino-1-(6-amino-5-cyano-pyrimidin-4-yl)-piperidine-4-carboxylic acid [(S)-3-hydroxy-1-(4-methoxy-phenyl)-propyl]-amide]
190	CC[C@H](NC(=O)C1(N)CCN(c2ncnc(N)c2Cl)CC1)c1ccc(Cl)cc1 [Example 215, 4-Amino-1-(6-amino-5-chloro-pyrimidin-4-yl)-piperidine-4-carboxylic acid [(S)-1-(4-chloro-phenyl)-propyl]-amide]
7200	Nc1ncnc(N2CCC(N)(C(=O)N[C@@H](CCO)c3ccncc3)CC2)c1Cl [Example 239, 4-Amino-1-(6-amino-5-chloro-pyrimidin-4-yl)-piperidine-4-carboxylic acid ((S)-3-hydroxy-1-pyridin-4-yl-propyl)-amide]
87	C[C@H](NC(=O)C1(N)CCN(c2ncnc(N)c2-c2cn[nH]c2)CC1)c1ccc(Cl)cc1 [Example 224, 4-Amino-1-[6-amino-5-(1H-pyrazol-4-yl)-pyrimidin-4-yl]-piperidine-4-carboxylic acid [(S)-1-(4-chloro-phenyl)-ethyl]-amide]
2400	CC[C@H](NC(=O)C1(N)CCN(c2ncnc(N)c2C(N)=O)CC1)c1ccc(Cl)cc1 [Example 245, 4-Amino-6-{4-amino-4-[(S)-1-(4-chloro-phenyl)-propylcarbamoyl]-piperidin-1-yl}-pyrimidine-5-carboxylic acid amide]
200	CCc1c(N)ncnc1N1CCN(C(CN)c2ccc(Cl)nc2)CC1 (stereo not drawn) [Example 177, 6-{4-[2-Amino-1-(6-chloro-pyridin-3-yl)-ethyl]-piperazin-1-yl}-5-ethyl-pyrimidin-4-ylamine]
150	Nc1ncnc(N2CCC(N)(CNC(=O)c3ccc(F)cc3F)CC2)c1Br [Example 207, N-[4-Amino-1-(6-amino-5-bromo-pyrimidin-4-yl)-piperidin-4-ylmethyl]-2,4-difluoro-benzamide]
820	N#Cc1c(N)ncnc1N1CCC(N)(C(=O)N[C@@H](CCO)c2ccccc2)CC1 [Example 226, 4-Amino-1-(6-amino-5-cyano-pyrimidin-4-yl)-piperidine-4-carboxylic acid ((S)-3-hydroxy-1-phenyl-propyl)-amide]
18000	N#Cc1c(N)ncnc1N1CCC(N)(C(=O)N[C@@H](CCO)c2ccc(C(F)(F)F)cc2)CC1 [Example 230, 4-Amino-1-(6-amino-5-cyano-pyrimidin-4-yl)-piperidine-4-carboxylic acid [(S)-3-hydroxy-1-(4-trifluoromethyl-phenyl)-propyl]-amide]
210	COC[C@H](NC(=O)C1(N)CCN(c2ncnc(N)c2C#N)CC1)c1ccc(Cl)cc1 [Example 241, 4-Amino-1-(6-amino-5-cyano-pyrimidin-4-yl)-piperidine-4-carboxylic acid [(R)-1-(4-chloro-phenyl)-2-methoxy-ethyl]-amide]
250	Nc1ncnc(N2CCC(C(c3ccc(F)cc3)N3CCCC3)CC2)c1-c1ccc(F)cc1 (stereo not drawn) [Example 148, 5-(4-fluoropheny)-6-(4-((4-fluorophenyl)(pyrrolidin-1-yl)methyl)piperidin-1-yl)pyrimidin-4-amine]
4	NCC(c1ccc(F)c(Cl)c1)N1CCN(c2ncnc(N)c2-c2ccc(F)cc2)CC1 (stereo not drawn) [Example 161, 6-{4-[2-Amino-1-(3-chloro-4-fluoro-phenyl)-ethyl]-piperazin-1-yl}-5-(4-fluoro-phenyl)-pyrimidin-4-ylamine]
240	N#CC(c1ccc(F)cc1)N1CCN(c2ncnc(N)c2-c2ccc(F)cc2)CC1 (stereo not drawn) [Example 158, {4-[6-Amino-5-(4-fluoro-phenyl)-pyrimidin-4-yl]-piperazin-1-yl}-(4-fluoro-phenyl)-acetonitrile]
